According to patent US20230310413A1, “PHARMACEUTICAL FORMULATIONS COMPRISING A MALT1 INHIBITOR AND A MIXTURE OF POLYETHYLENE GLYCOL WITH A FATTY ACID” (JANSSEN PHARMACEUTICA NV, priority 2020, published 2023):
Read-outs that look alike come from different tables or passages of the source.

Assay: Pharmacokinetics of Compound A after single oral administration at 200 mg in fasted and fed dogs
Assay type: in vivo, male beagle dogs
Conditions: 200 mg oral dose; for AUC(0-t) / Tmax / half-life / Cmax: male, po, 200 mg; for Tmax: median; for half-life: N = 2, poor linear regression; for Cmax: Gelucire 50/13 size 00 hard gelatin capsule, N=3
Protocol: Example 8: Pharmacokinetics of Compound a after Single Oral Administration at 200 Mg in Fasted and Fed Dogs
A pharmacokinetic (PK) study was carried out using a Compound A stearoyl polyoxy-32 glycerides formulation.
A formulation of compound A and stearoyl polyoxy-32 glycerides (Gelucire® 50/13) in size 00 hard gelatin capsules (200 mg dose per capsule), according to Table 3, was administered orally to male beagle dogs (N=3) in a fasted state as well as a fed state.

[1] = beagle, dog, plasma, fasted male dogs, Gelucire 50/13 hard gelatin capsule
[2] = beagle, dog, plasma, fed male dogs, Gelucire 50/13 hard gelatin capsule

AUC(0-inf) (beagle, dog, plasma, fasted male dogs, Gelucire 50/13 hard gelatin capsule, mean): 578 µg·h/mL
Fed vs Fasted (fed male dogs, fasted group as reference): 1.3
AUC(0-t) (beagle, dog, plasma, fasted male dogs, Gelucire 50/13 hard gelatin capsule, mean, read-out: AUC0-24 h): 246 µg·h/mL
AUC(0-t) (beagle, dog, plasma, fasted male dogs, Gelucire 50/13 hard gelatin capsule, mean, read-out: AUC0-96 h): 521 µg·h/mL
Tmax [1]: 2 h
half-life [1]: 30 h
Cmax (beagle, dog, plasma, fasted male dogs, mean): 16000 ng/mL
AUC(0-t) (beagle, dog, plasma, fed male dogs, Gelucire 50/13 hard gelatin capsule, mean, read-out: AUC0-24 h): 121 µg·h/mL
AUC(0-t) (beagle, dog, plasma, fed male dogs, Gelucire 50/13 hard gelatin capsule, mean, read-out: AUC0-96 h): 502 µg·h/mL
Tmax [2]: 24 h
half-life [2]: 34 h
Cmax (beagle, dog, plasma, fed male dogs, mean): 9330 ng/mL
Compound: O=C(Nc1ccnc(C(F)(F)F)c1)c1cnn(-c2cccc3c(=O)[nH]ccc23)c1C(F)(F)F [Compound A, 1-(1-oxo-1,2-dihydroisoquinolin-5-yl)-5-(trifluoromethyl)-N-(2-(trifluoromethyl)pyridin-4-yl)-1H-pyrazole-4-carboxamide]
